Calls of active or inactive are those of the source. How the calls were made is not given here.
Test system: rodent carcinogenicity bioassays, tumor incidence
Test: CCRIS carcinogenicity studies
Summary of the method: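 NCI-built, expert-reviewed records of carcinogenicity and related test outcomes (mutagenicity, tumor promotion/inhibition) compiled from published and report sources, historical span 1985-2011, not updated.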

With C=C(C)CN(CC)c1c([N+](=O)[O-])cc(C(F)(F)F)cc1[N+](=O)[O-] the carcinogen call (Species: Mouse, Strain/Sex: B6C3F1/Female (40/Experimental group; 60/Control group), Route: Oral, Dose: 0, 100, 400, 1500 ppm of 94.5% ethalfluralin in diet for 2 yr, study duration 2 yr (2 replicate studies)., Dose: 0, 100, 400, 1500 ppm of 94.5% ethalfluralin in diet for 2 yr, study duration 2 yr (2 replicate studies).) was “inactive; negative”, the carcinogen call (Species: Mouse, Strain/Sex: B6C3F1/Male (40/Experimental group; 60/Control group), Route: Oral, Dose: 0, 100, 400, 1500 ppm of 94.5% ethalfluralin in diet for 2 yr, study duration 2 yr (2 replicate studies)., Dose: 0, 100, 400, 1500 ppm of 94.5% ethalfluralin in diet for 2 yr, study duration 2 yr (2 replicate studies).) was “inactive; negative” and the carcinogen call (Species: Rat, Strain/Sex: Fischer 344/Female (30/Group; replicate studies using 94.5% ethalfluralin), Route: Oral, Dose: 0, 0.01, 0.025, 0.075% (0; 4.2; 10.7; 32.3 mg/kg/d) in diet for 2 yr, study duration 2 yr, Dose: 0, 0.01, 0.025, 0.075% (0; 4.2; 10.7; 32.3 mg/kg/d) in diet for 2 yr, study duration 2 yr, Tumor Site: Type of Lesion: Mammary gland: Benign fibroadenomas) was “active; positive”. The carcinogen call (Species: Rat, Strain/Sex: Fischer 344/Male (30/Group; replicate studies using 94.5% ethalfluralin), Route: Oral, Dose: 0, 0.01, 0.025, 0.075% (0; 4.2; 10.7; 32.3 mg/kg/d) in diet for 2 yr, study duration 2 yr, Dose: 0, 0.01, 0.025, 0.075% (0; 4.2; 10.7; 32.3 mg/kg/d) in diet for 2 yr, study duration 2 yr) was “inactive; negative”.
With CN(C)C(=S)SSC(=S)N(C)C the carcinogen call (Species: DOG, Strain/Sex: BEAGLE/FEMALE, Route: ORAL, Dose: 0, 0.4, 4, 40 MG/KG/D ADMINISTERED IN GELATIN CAPSULES 7 D/WK FOR 104 WK (STUDY DURATION: 104 WK), Dose: 0, 0.4, 4, 40 MG/KG/D ADMINISTERED IN GELATIN CAPSULES 7 D/WK FOR 104 WK (STUDY DURATION: 104 WK)) was “inactive; negative”, the carcinogen call (Species: DOG, Strain/Sex: BEAGLE/MALE, Route: ORAL, Dose: 0, 0.4, 4, 40 MG/KG/D ADMINISTERED IN GELATIN CAPSULES 7 D/WK FOR 104 WK (STUDY DURATION: 104 WK), Dose: 0, 0.4, 4, 40 MG/KG/D ADMINISTERED IN GELATIN CAPSULES 7 D/WK FOR 104 WK (STUDY DURATION: 104 WK)) was “inactive; negative” and the carcinogen call (Species: MOUSE, Strain/Sex: SWISS/FEMALE, Route: DERMAL, Dose: 0, 100 MG/KG BW IN 100 µL DMSO 3/WK FOR 52 WK (STUDY DURATION: 52 WK)) was “inactive; negative”. For the same compound, the carcinogen call (Species: MOUSE, Strain/Sex: SWISS/MALE, Route: 0, 100 MG/KG BW IN 100 µL DMSO 3/WK FOR 52 WK (STUDY DURATION: 52 WK)) was “inactive; negative”, the carcinogen call (Species: RAT, Strain/Sex: F344/FEMALE, Route: ORAL, Dose: 0, 0.05, 0.1% IN DIET FOR 104 WK (STUDY DURATION: 112 WK), Dose: 0, 0.05, 0.1% IN DIET FOR 104 WK (STUDY DURATION: 112 WK)) was “inactive; negative” and the carcinogen call (Species: RAT, Strain/Sex: F344/MALE, Route: ORAL, Dose: 0, 0.05, 0.1% IN DIET FOR 104 WK (STUDY DURATION: 112 WK), Dose: 0, 0.05, 0.1% IN DIET FOR 104 WK (STUDY DURATION: 112 WK)) was “inactive; negative”. The carcinogen call (Species: RAT, Strain/Sex: WISTAR/FEMALE, Route: ORAL, Dose: 0, 3, 30, 300 PPM IN DIET FOR 104 WK (STUDY DURATION: 104 WK), Dose: 0, 3, 30, 300 PPM IN DIET FOR 104 WK (STUDY DURATION: 104 WK)) was “inactive; negative” and the carcinogen call (Species: RAT, Strain/Sex: WISTAR/MALE, Route: ORAL, Dose: 0, 3, 30, 300 PPM IN DIET FOR 104 WK (STUDY DURATION: 104 WK), Dose: 0, 3, 30, 300 PPM IN DIET FOR 104 WK (STUDY DURATION: 104 WK)) was “inactive; negative”.
In the case of N=C1C=CC(=C(c2ccc(N)cc2)c2ccc(N)cc2)C=C1, the carcinogen call (Species: MOUSE, Strain/Sex: B6C3F1/FEMALE, Route: ORAL, Dose: 0, 500, 1000 PPM IN DIET FOR 103 WK (STUDY DURATION: 110-113 WK), Dose: 0, 500, 1000 PPM IN DIET FOR 103 WK (STUDY DURATION: 110-113 WK), Tumor Site: Type of Lesion: LUNG: ALVEOLAR/BRONCHIOLAR ADENOMA, ALVEOLAR/BRONCHIOLAR ADENOMA OR CARCINOMA;LIVER: HEPATOCELLULAR ADENOMA, HEPATOCELLU) is reported as “active; positive”, the carcinogen call (Species: MOUSE, Strain/Sex: B6C3F1/MALE, Route: ORAL, Dose: 0, 500, 1000 PPM IN DIET FOR 103 WK (STUDY DURATION: 113-115 WK), Dose: 0, 500, 1000 PPM IN DIET FOR 103 WK (STUDY DURATION: 113-115 WK), Tumor Site: Type of Lesion: LIVER: HEPATOCELLULAR CARCINOMA, HEPATOCELLULAR ADENOMA OR CARCINOMA) is reported as “active; positive” and the carcinogen call (Species: RAT, Strain/Sex: F344/FEMALE, Route: ORAL, Dose: 0, 500, 1000 PPM IN DIET FOR 103 WK (STUDY DURATION: 110-113 WK), Dose: 0, 500, 1000 PPM IN DIET FOR 103 WK (STUDY DURATION: 110-113 WK), Tumor Site: Type of Lesion: INTEGUMENTARY SYSTEM (SUBCUTANEOUS TISSUE): FIBROMA, FIBROMA OR FIBROSARCOMA, FIBROMA OR SARCOMA OR FIBROSARCOMA, MAMMAR) is reported as “active; positive”. The carcinogen call (Species: RAT, Strain/Sex: F344/MALE, Route: ORAL, Dose: 0, 1000, 2000 PPM IN DIET FOR 103 WK (STUDY DURATION: 110-113 WK), Dose: 0, 1000, 2000 PPM IN DIET FOR 103 WK (STUDY DURATION: 110-113 WK), Tumor Site: Type of Lesion: INTEGUMENTARY SYSTEM (SKIN): SQUAMOUS CELL CARCINOMA, SQUAMOUS CELL PAPILLOMA OR CARCINOMA, TRICHOEPITHELIOMA, SEBACEOUS) was “active; positive”, the carcinogen call (Species: RAT, Strain/Sex: SPRAGUE-DAWLEY/FEMALE, Route: GAVAGE, Dose: 0, 300 MG/KG BW 2/WK FOR 18 WK WITH A 1 WK REST AFTER 12 WK THEN STARTING AT 19 WK 150 MG/KG BW 2/WK FOR DURATION OF STU) was “inactive; negative” and the carcinogen call (Species: RAT, Strain/Sex: SPRAGUE-DAWLEY/MALE, Route: GAVAGE, Dose: 0, 300 MG/KG BW 2/WK FOR 18 WK WITH A 1 WK REST AFTER 12 WK THEN STARTING AT 19 WK 150 MG/KG BW 2/WK FOR DURATION OF STU) was “inactive; negative”.
With CCOP(=O)(NC(C)C)Oc1ccc(SC)c(C)c1 (stereo unspecified) the carcinogen call (Species: Mouse, Strain/Sex: CD-1/Female (50/Group), Route: Oral, Dose: 0, 2, 10, 50 ppm of 89.2-90.5% fenamiphos in diet for 20 mo, study duration 20 mo, Dose: 0, 2, 10, 50 ppm of 89.2-90.5% fenamiphos in diet for 20 mo, study duration 20 mo) was “inactive; negative”, the carcinogen call (Species: Mouse, Strain/Sex: CD-1/Male (50/Group), Route: Oral, Dose: 0, 2, 10, 50 ppm of 89.2-90.5% fenamiphos in diet for 20 mo, study duration 20 mo, Dose: 0, 2, 10, 50 ppm of 89.2-90.5% fenamiphos in diet for 20 mo, study duration 20 mo) was “inactive; negative” and the carcinogen call (Species: Rat, Strain/Sex: Strain not specified/Female (50/Group), Route: Oral, Dose: 0, 2, 10, 50 ppm Nemacure (89% fenamiphos) in diet for 2 yr, study duration 2 yr, Dose: 0, 2, 10, 50 ppm Nemacure (89% fenamiphos) in diet for 2 yr, study duration 2 yr) was “inactive; negative”. The carcinogen call (Species: Rat, Strain/Sex: Strain not specified/Male (50/Group), Route: Oral, Dose: 0, 2, 10, 50 ppm Nemacure (89% fenamiphos) in diet for 2 yr, study duration 2 yr, Dose: 0, 2, 10, 50 ppm Nemacure (89% fenamiphos) in diet for 2 yr, study duration 2 yr) was “inactive; negative”.
With COc1ccc(N)cc1 the carcinogen call (Species: MOUSE, Strain/Sex: B6C3F1/FEMALE, Route: ORAL, Dose: 0, 0.5, 1.0% OF DIET FOR 103 WK (STUDY DURATION: 104 WK), Dose: 0, 0.5, 1.0% OF DIET FOR 103 WK (STUDY DURATION: 104 WK)) was “inactive; negative”, the carcinogen call (Species: MOUSE, Strain/Sex: B6C3F1/MALE, Route: ORAL, Dose: 0, 0.5, 1.0% OF DIET FOR 103 WK (STUDY DURATION: 104 WK), Dose: 0, 0.5, 1.0% OF DIET FOR 103 WK (STUDY DURATION: 104 WK)) was “inactive; negative” and the carcinogen call (Species: RAT, Strain/Sex: F344/FEMALE, Route: ORAL, Dose: 0, 0.3, 0.6% OF DIET FOR 103 WK (STUDY DURATION: 104-105 WK), Dose: 0, 0.3, 0.6% OF DIET FOR 103 WK (STUDY DURATION: 104-105 WK)) was “inactive; negative”. The carcinogen call (Species: RAT, Strain/Sex: F344/MALE, Route: ORAL, Dose: 0, 0.3, 0.6% OF DIET FOR 103 WK (STUDY DURATION: 104-105 WK), Dose: 0, 0.3, 0.6% OF DIET FOR 103 WK (STUDY DURATION: 104-105 WK), Tumor Site: Type of Lesion: PREPUTIAL GLAND: ADENOMA OR CARCINOMA) was “equivocal”.
